This note sets out measurements from patent US12577230B2, “2-(3-pyridin-2-yl-4-quinolin-4-yl-pyrazol-1-yl)- acetamide derivatives as inhibitors of transforming growth factor-beta receptor I/ALK5” (AGOMAB SPAIN S.L.U., priority 2020, dated 2026).

The structures appear in SMILES notation.

Data set [1] can be described thus: Determination of plasma stability in human plasma. The data set is classed as in vitro ADME. As to conditions: 10 μM, 37° C. On the procedure: Determination of Plasma Stability of Some Compounds
Human plasma pooled from healthy donors extracted in citrate tubes was employed in the assay. Briefly, plates containing 10 μM compounds in plasma (total volume: 50 μL) were incubated at 37° C. at the different times (0, 30, 120 and 360 min). Then 100 μl Acetonitrile were added for precipitating plasma protein, and the plate was centrifuged at 46000 g for 60 min at 5° C. Supernatant was taken and analysed by UPLC/MS/MS for sample quantification. Stationary phase: Reverse phase Acquity UPLC® BEH C18 1.7 μm (2.1 mm×50 mm) (Waters). Mobile phase: 0.1% Formic acid water/0.1% formic acid in acetonitrile.
Flow: 0.6 ml/min. The chromatographic equipment employed was an UPL QSM Waters Acquity. Compound concentrations were calculated from the MS peak areas.

Data set [2] deals with T1, Human TGFβR-1 (Homo sapiens, UniProt P36897).
T1 construct: purchased Promega V4092
T1 sequence (P36897 34-503): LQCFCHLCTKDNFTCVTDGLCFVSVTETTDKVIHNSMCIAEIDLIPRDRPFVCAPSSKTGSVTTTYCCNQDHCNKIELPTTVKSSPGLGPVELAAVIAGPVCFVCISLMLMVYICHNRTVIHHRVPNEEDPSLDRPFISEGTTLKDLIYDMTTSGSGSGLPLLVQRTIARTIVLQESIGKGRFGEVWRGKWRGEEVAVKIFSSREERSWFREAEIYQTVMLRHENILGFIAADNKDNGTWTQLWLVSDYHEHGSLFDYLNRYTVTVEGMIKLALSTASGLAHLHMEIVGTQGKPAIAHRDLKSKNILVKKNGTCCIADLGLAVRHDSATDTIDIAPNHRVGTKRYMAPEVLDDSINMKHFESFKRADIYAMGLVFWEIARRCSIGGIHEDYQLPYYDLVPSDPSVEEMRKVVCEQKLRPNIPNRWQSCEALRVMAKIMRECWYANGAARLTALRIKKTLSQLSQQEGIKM
Kind of data set: In vitro enzyme assay: inhibition of TGFβR-1 (ADP-Glo kinase assay). In kind it is biochemical. As to conditions: TGFβR-1 kinase 50 ng/well, 50 μM ATP, 120 min RT. The source says: In the present application are used the following abbreviations, with the corresponding definitions: • AcOH: Acetic Acid • ACVR2B: activin A receptor, type IIB • ALKn: activin receptor-like kinase n • ATP: adenosin triphosphate • Boc2O: tert-butyl dicarbonate • Boc: tert-Butoxycarbonyl • Clint: Intrinsic clearance • DIPEA: N,N-Diisopropylethylamine • DMA: Dimethylacetamide • DMAP: 4-Dimethylaminopyridine • DMF: N,N-Dimethylformamide • DMSO: Dimethyl sulfoxide • EDCl: N-(3-Dimethylaminopropyl)-N′-ethylcarbodiimide) • Et3N: Triethylamine • EtOAc: Ethyl acetate • EtOH: ethanol • FBS: Fetal bovine serum • H: hour • HATU: 1-[Bis(dimethylamino)methylene]-1H-1,2,3-triazolo[4,5-b]pyridinium 3-oxide hexafluorophosphate • HOBT: Hydroxybenzotriazole • HPLC: High-performance liquid chromatography • ^1H-NMR: Proton nuclear magnetic resonance • K2EDTA: ethylenediaminetetracetic acid dipotassium salt • LC: Liquid chromatography • LiHMDS: Lithium bis(trimethylsilyl)amide • LLOQ: lower limit of quantification • MeCN: Acetonitrile • MeOH: Methanol • Min: minutes • MS: Mass spectroscopy • MTBE: Methyl tert-butyl ether • NBS: N-Bromosuccinimide • NaCMC: Sodium carboxymethyl cellulose • Rt: retention time • RT: room temperature • Sem: 2-(Trimethylsilyl)ethoxymethyl • TGFβ: transforming growth factor-β • THF: Tetrahydrofuran • THF:EtOH: Tetrahydrofuran:ethanol • UPLC: ultra high-performance liquid chromatography • UV: Ultraviolet Pharmacological Activity In Vitro Enzyme Assay: Inhibition of TGFβR-1 Human TGFβR-1 inhibition experiments were carried out in a white 384-microplate low flange (Corning 3572) with ADP-Glo kinase Assay Kit (Promega V9101) and TGFβR-1 Kinase Enzyme System (Promega V4092). Test compounds and standard Galunisertib (Cayman 15312), 50 ng/well TGFβR-1 kinase and 50 μM ATP were added in a final volume of 10 μL/well, using Reaction buffer supplied by kit as assay buffer. The reaction mixture was incubated in gentle shaking for 120 min at RT, after incubation of 10 μL of ADP-Glo Reagent was added and incubated in gentle shaking for 40 min at RT. 20 μL of Kinase Detection Reagent was added and plate was incubated in gentle shaking for 30 min at RT. Luminescence (1000 ms) was measured in Perkin Elmer EnSpire Multimode plate reader. Results
Background: In ADP-Glo the light output rises with the ADP produced.

Data set [3] addresses T2, ALK-5 (Homo sapiens, UniProt P36897).
T2 construct: endogenous in cells; host or cells: A549
T2 sequence (P36897 34-503): T1 sequence (P36897 34-503)
Kind of data set: Determination of the intracellular TGF-beta kinase activity (ALK-5), AlphaLISA SureFire p-SMAD3 in A549 cells. The data set is classed as cell-based. As to conditions: A549 cell line, TGF-β2 activated, p-SMAD3(Ser423/425). How it is done:
Determination of the Intracellular TGF-Beta Kinase Activity (ALK-5)
The experiments were carried out in A549 cell line. 30000 cells were seeded in 200 μl of culture medium (Sigma D6046) supplemented with L-Glutamine (Sigma G7513), Penicillin/Streptomycin (Invitrogen 11058) and FBS (Sigma F9665) on a 96 wells microplate (Becton Dickinson 353072). After 16 hours medium was changed to serum free medium. Galunisertib, as inhibitor ligand (Cayman CAY-15312) and recombinant Human TGF-β2 (R&D Systems 302-B2-002) as activator of the ALK-5, were added in their corresponding wells and incubated following the instructions of the Alphascreen AlphaLISA@SureFire® Ultra™ p-SMAD3(Ser423/425) Kit (Perkin Elmer ALSU-PSM3-A500).
Background: Bead proximity is the source of the signal in Alpha formats.

Regarding `Cc1cccc(-c2nn(CC(=O)Nc3cc(F)cc(C(=O)OCC4CC4)c3)cc2-c2ccnc3ccccc23)n1` [Comparative example 1, Cyclopropylmethyl 3-fluoro-5-(2-(3-(6-methylpyridin-2-yl)-4-(quinolin-4-yl)-1H-pyrazol-1-yl)acetamido)benzoate, reference compound], in data set [1], the “remaining percentage 0 min” value came to 100%, the “remaining percentage 30 min” value was determined as 100%, the “remaining percentage 120 min” value is given as 88% and the “remaining percentage 360 min” value is recorded as 87%.

For the compound `COC(=O)c1cc(Cl)cc(NC(=O)Cn2cc(-c3ccnc4ccccc34)c(-c3cccc(C)n3)n2)c1` [Comparative example 2, methyl 3-chloro-5-(2-(3-(6-methylpyridin-2-yl)-4-(quinolin-4-yl)-1H-pyrazol-1-yl)acetamido)benzoate, reference compound], in data set [1], the “remaining percentage 0 min” value stood at 100%, the “remaining percentage 30 min” value turned out to be 83%, the “remaining percentage 120 min” value is 69% and the “remaining percentage 360 min” value was found to be 67%.

Regarding `Cc1cccc(-c2nn(CC(=O)Nc3cc(F)cc(C(=O)OCCO)c3)cc2-c2ccnc3ccccc23)n1` [Comparative example 3, 2-hydroxyethyl 3-fluoro-5-(2-(3-(6-methylpyridin-2-yl)-4-(quinolin-4-yl)-1H-pyrazol-1-yl)acetamido)benzoate, reference compound], in data set [1], the “remaining percentage 0 min” value is reported as 100%, the “remaining percentage 30 min” value stood at 99%, the “remaining percentage 120 min” value was found to be 96% and the “remaining percentage 360 min” value was 73%.

`Cc1cccc(-c2nn(CC(=O)Nc3cncc(C(=O)OCCN(C)C)c3)cc2-c2ccnc3ccccc23)n1` [Example 2, 2-(dimethylamino)ethyl 5-(2-(3-(6-methylpyridin-2-yl)-4-(quinolin-4-yl)-1H-pyrazol-1-yl)acetamido)nicotinate] had an IC50 in data set [2] of less than 100 nM.

As for `Cc1cccc(-c2nn(CC(=O)Nc3ccc(C(=O)OCCN(C)C)cn3)cc2-c2ccnc3ccccc23)n1` [Example 3, 2-(dimethylamino)ethyl 6-(2-(3-(6-methylpyridin-2-yl)-4-(quinolin-4-yl)-1H-pyrazol-1-yl)acetamido)nicotinate], in data set [2], the IC50 is 100 to 250 nM.

For `Cc1cccc(-c2nn(CC(=O)Nc3cc(F)cc(C(=O)OCCN4CCOCC4)c3)cc2-c2ccnc3ccccc23)n1` [Example 4, 2-morpholinoethyl 3-fluoro-5-(2-(3-(6-methylpyridin-2-yl)-4-(quinolin-4-yl)-1H-pyrazol-1-yl)acetamido)benzoate], the results for the concentration for half-maximal inhibition (IC50) in data set [2] and in data set [3] were 100 to 250 nM and less than 1000 nM, respectively.

In turn, `Cc1cccc(-c2nn(CC(=O)Nc3cc(F)cc(C(=O)OC4CCN(C)CC4)c3)cc2-c2ccnc3ccccc23)n1` [Example 8, 1-methylpiperidin-4-yl 3-fluoro-5-(2-(3-(6-methylpyridin-2-yl)-4-(quinolin-4-yl)-1H-pyrazol-1-yl)acetamido)benzoate] registered an IC50 in data set [2] of 100 to 250 nM.

As to `Cc1cccc(-c2nn(CC(=O)Nc3cc(F)cc(C(=O)O[C@H]4CN5CCC4CC5)c3)cc2-c2ccnc3ccccc23)n1` [Example 10, (R)-quinuclidin-3-yl 3-fluoro-5-(2-(3-(6-methylpyridin-2-yl)-4-(quinolin-4-yl)-1H-pyrazol-1-yl)acetamido)benzoate], the IC50 in data set [2] is less than 100 nM.

`Cc1cccc(-c2nn(CC(=O)Nc3cc(F)cc(C(=O)O[C@@H]4CN5CCC4CC5)c3)cc2-c2ccnc3ccccc23)n1` [Example 11, (S)-quinuclidin-3-yl 3-fluoro-5-(2-(3-(6-methylpyridin-2-yl)-4-(quinolin-4-yl)-1H-pyrazol-1-yl)acetamido)benzoate] had a concentration for half-maximal inhibition (IC50) in data set [2] of less than 100 nM.

In the case of `Cc1cccc(-c2nn(CC(=O)Nc3cc(F)cc(C(=O)OC45CCN(CC4)CC5)c3)cc2-c2ccnc3ccccc23)n1` [Example 12, quinuclidin-4-yl 3-fluoro-5-(2-(3-(6-methylpyridin-2-yl)-4-(quinolin-4-yl)-1H-pyrazol-1-yl)acetamido)benzoate], the half-inhibitory concentration (IC50) in data set [2] is less than 100 nM.

Turning to `Cc1cccc(-c2nn(CC(=O)Nc3cc(F)cc(C(=O)OCCN4CCC4)c3)cc2-c2ccnc3ccccc23)n1` [Example 13, 2-(azetidin-1-yl)ethyl 3-fluoro-5-(2-(3-(6-methylpyridin-2-yl)-4-(quinolin-4-yl)-1H-pyrazol-1-yl)acetamido)benzoate], the IC50 in data set [2] fell in the range of 100 to 250 nM.

`Cc1cccc(-c2nn(CC(=O)Nc3cc(F)cc(C(=O)OCCN4CC4)c3)cc2-c2ccnc3ccccc23)n1` [Example 14, 2-(aziridin-1-yl)ethyl 3-fluoro-5-(2-(3-(6-methylpyridin-2-yl)-4-(quinolin-4-yl)-1H-pyrazol-1-yl)acetamido)benzoate] showed an IC50 in data set [2] of less than 100 nM.

Regarding `Cc1cccc(-c2nn(CC(=O)Nc3cc(F)cc(C(=O)OCCN)c3)cc2-c2ccnc3ccccc23)n1` [Example 16, 2-aminoethyl 3-fluoro-5-(2-(3-(6-methylpyridin-2-yl)-4-(quinolin-4-yl)-1H-pyrazol-1-yl)acetamido)benzoate], the half-inhibitory concentration (IC50) in data set [2] is less than 100 nM.

In data set [2], `CCNCCOC(=O)c1cc(F)cc(NC(=O)Cn2cc(-c3ccnc4ccccc34)c(-c3cccc(C)n3)n2)c1` [Example 17, 2-(ethylamino)ethyl 3-fluoro-5-(2-(3-(6-methylpyridin-2-yl)-4-(quinolin-4-yl)-1H-pyrazol-1-yl)acetamido)benzoate] showed a half-inhibitory concentration (IC50) of less than 100 nM.

In data set [2], `Cc1cccc(-c2nn(CC(=O)Nc3cc(F)cc(C(=O)OCCNC(C)C)c3)cc2-c2ccnc3ccccc23)n1` [Example 18, 2-(isopropylamino)ethyl 3-fluoro-5-(2-(3-(6-methylpyridin-2-yl)-4-(quinolin-4-yl)-1H-pyrazol-1-yl)acetamido)benzoate] had a half-inhibitory concentration (IC50) of less than 100 nM. In addition, in data set [1], the “remaining percentage 0 min” value came out at 100%, the “remaining percentage 30 min” value stood at 33.9%, the “remaining percentage 120 min” value is 11.1% and the “remaining percentage 360 min” value came out at 0.1%.

The compound `Cc1cccc(-c2nn(CC(=O)Nc3cc(F)cc(C(=O)OCC4CCNCC4)c3)cc2-c2ccnc3ccccc23)n1` [Example 20, piperidin-4-ylmethyl 3-fluoro-5-(2-(3-(6-methylpyridin-2-yl)-4-(quinolin-4-yl)-1H-pyrazol-1-yl)acetamido)benzoate] registered an IC50 in data set [2] of 100 to 250 nM.

As usually defined, the IC50 is the midpoint of a concentration-inhibition curve. A low value points to greater potency in that assay.
